The text below walks through data of patent publication EP0833842B1, “NOVEL PEPTIDES FOR USE IN TREATMENT OF T-CELL MEDIATED CARTILAGE DESTRUCTION IN AUTOIMMUNE DISEASES” (Akzo Nobel N.V., priority 1995, dated 1999).

For this experiment, the target named is DR4 (DRB1*0401) (Homo sapiens, UniProt P01903+P01911, A100K/A169T/F76Y/I96L/K127E/L162R/M171V/N62H/P40V/Q125Y/R42H/S133A/S149N/S66Y/V115G/V209L/W38E). Nature of the experiment: Peptide HLA-DR binding assay (semi-quantitative competition with biotinylated marker peptide). The settings on record: read-out: DRB1*0401 ^eIC50. As to the method:
Two EBV-transformed B-cell lines, BSM (typed as DR4 [DRB1*0401] and BM92 (typed as DR4 [DRB1*0404) were provided by Dr. M. Oudshoom from the Academic Hospital Leiden, the Netherlands. The cells were cultured in Dulbecco's modified eagles minimal essential medium DMEM/HAM's F12 (Gibco Laboratories, Grand Island, NY) supplemented with 10% FCS (Hyclone Laboratories), 1% non-essential amino acids (ICI), L-glutamine, 2-ME and antibiotics. Cells were routinely passaged every 2-3 days in a 1:2 ratio. Cells were harvested and thereafter washed three times in phosphate buffer saline (PBS) (4°C) containing 1 mM PMSF. Cell pellets were stored at -70°C until use. HLA-DR expressing cells were thawed and lysed on ice for 30 minutes in PBS, 1% NP-40, 1 mM AEBSF (Calbiochem). The lysate was cleared of nuclei and debris by centrifugation at 15.000 rpm (Sorvall, SS34 rotor) for 30 minutes.
HLA-DR molecules were affinity purified from cell lysates using monoclonal antibody L243 (ATCC), directed against a nonpolymorphic determinant on the DR-complex (Lampson et al., J. Immunol. 125:293, 1980). Protein G sepharose purified L243 was coupled to NHS-Sepharose 4 FF (Pharmacia) according to the manufactures instructions. The cleared cell-lysate was passed through a 0.45 µm filter and added to L243-NHS-sepharose beads. […] Collected fractions were analysed on SDS-PAGE under non-reducing conditions followed by silver staining. […]
The peptide binding studies were performed using a semi-quantitative binding assay as described previously (Joosten et al., Int. Immunol. 6:751, 1994).
After approximately 48 hours incubation at room temperature, bound and unbound marker peptides were separated by SDS-PAGE under non-reducing conditions. […] Biotinylated peptides were detected by enhanced chemoluminescence using a Westem Blot ECL kit (Amersham, U.K.) according to the manufactures instructions. […]

Where no end group is shown, it is not given here.

With AGWLADGSLRYPI [HAG3], the IC50 was 1 to 10 µM.

On to AGWLADRSVRYPI [HAG2], for which the IC50 is 1 to 10 µM.

For AGWLSDGSVQYPI [HCLP1], the IC50 lay in the range of 10 to 100 µM.
